In PMC7377239, “Cardiovascular Effects of Polychlorinated Biphenyls and Their Major Metabolites” (Environmental Health Perspectives, 2020):
Where a name gives a salt, the structure may show the parent alone. Read-outs that look alike come from different tables or passages of the source.

System: iCell endothelial cells (human iPSC-derived ECs)
Assay: High-content imaging cytotoxicity in iCell endothelial cells, 24 h
Type: cell-based
Settings: Homo sapiens, Endothelial cell, iPSC-EC, 24 hr; for viability at 0.1 µM / activity at 0.1 µM: 0.10 µM; for minimal effective concentration: top concentration 100.00 µM
Experimental: The culture conditions of iCell®-endothelial cells were as reported elsewhere ([Iwata et al. 2017]). Briefly, T75 flasks were coated with a fibronectin solution ( 3 μg/cm^2 ) followed by incubation for 1–2 h. Cells were thawed for 3 min in a 37°C water bath. Thawed cells were added to maintenance medium made of VascuLife VEGF Medium Complete Kit, excluding the supplied FBS, and iCell® Endothelial Cells Medium Supplement. The final formulation of the maintenance medium is detailed in ([Iwata et al. 2017]). The aliquoted fibronectin solution was aspirated from the T75 flasks, and cells were seeded at 1.0×10^4 cells/cm^2 . Cells were maintained at 37°C and 5% CO2 with media changes occurring every 2 d and passaged every 3–4 d using TrypLE™ Express. All experiments were conducted on cells between passages 1 and 5.
Cytotoxicity was assessed in parallel experiments. For iCell®-endothelial cells, 384-well plates were coated with a 30μg/mL fibronectin solution ( 10μL/well ) and incubated for 2 h at RT. iCell®-endothelial cells were dissociated with TrypLE™ Express and prepared into a solution to achieve 750 cells per well and 50μL of total volume. The fibronectin solution was removed from the 384-well plate, and cells were plated. For HUVECs, similar dissociation and the same cell density were used for plating with the exclusion of the fibronectin solution. Cells were incubated at 37°C and 5% CO2 until a monolayer was formed, typically 3–5 d. 2×PCB plates were created with the requisite maintenance medium. Before treatment, the medium in the wells was exchanged to 25μL/well of fresh maintenance medium. 2×PCB chemical solutions ( […] ) were added. After 24 h incubation at 37°C and 5% CO2 , cells were stained with Hoechst 33342, MitoTracker™ Orange, and calcein AM for 20 min before replacing the staining media with FluoroBright DMEM. Cell culture plates were imaged using the ImageXpress® Micro Confocal high-content imaging system (Molecular Devices). Images were acquired at 10× magnification with DAPI, TRITC, or FITC filter (Hoechst 33342, MitoTracker™, or calcein AM, respectively). The multiwavelength cell scoring applications module in MetaXpress™ (Molecular Devices) was used to analyze the images.
Phenotypic responses were quantitatively assessed using concentration–response modeling as detailed elsewhere ([Sirenko et al. 2017]). Briefly, phenotypic readouts were normalized to vehicle controls and fit to a four-parameter logistic model in R studio software (version 3.1.1; R Development Core Team). Following EPA guidance on dose–response modeling, a cutoff of one standard deviation across means of vehicle control (i.e., 0.5% vol/vol DMSO in cell culture media) wells was applied to determine the point-of-departure (POD) values ([U.S. EPA 2012]). In the absence of a concentration–response, the highest tested concentration (i.e., 100μM ) was assigned as “no observable adverse effect level.” The concentration–response assessment R script, as well as templates for vehicle and concentration–response data, are available as a supplement to Sirenko et al. ([2017]). The ability of physicochemical properties to predict differences in PODs were evaluated by multiregression and mixed-effects modeling using R.

[1] = 0.00 µM control = 100.00, read-out: endo.cyto.24hr
[2] = 0.00 µM control = 100.00, read-out: endo.mito.24hr
[3] = 0.00 µM control = 100.00, read-out: endo.mitoint.24hr
[4] = 0.00 µM control = 100.00, read-out: endo.nma.24hr
[5] = 0.00 µM control = 100.00, read-out: endo.tc.24hrs
[6] = read-out: endo.mitoint.24hr POD

Row | SMILES | viability at 0.01 µM [1] [%] | activity at 0.01 µM [2] [%] | activity at 0.01 µM [3] [%] | activity at 0.01 µM [4] [%] | viability at 0.01 µM [5] [%] | viability at 0.1 µM [1] [%] | activity at 0.1 µM [2] [%] | activity at 0.1 µM [3] [%] | activity at 0.1 µM [4] [%] | viability at 0.1 µM [5] [%] | viability at 1 µM [1] [%] | activity at 1 µM [2] [%] | activity at 1 µM [3] [%] | activity at 1 µM [4] [%] | viability at 1 µM [5] [%] | viability at 10 µM [1] [%] | activity at 10 µM [2] [%] | activity at 10 µM [3] [%] | activity at 10 µM [4] [%] | viability at 10 µM [5] [%] | other results
1 | Oc1ccc(O)c(-c2ccc(Cl)cc2)c1 [2',5'-DiOH PCB3] | 90.8 | 91.1 | 127 | 103 | 90.8 | 93.4 | 94 | 109 | 101 | 93.5 | 99.2 | 99.2 | 104 | 98.6 | 99.2 | 86.5 | 86.6 | 108 | 101 | 86.5 | viability at 100 µM [1]: 12.2%; activity at 100 µM [2]: 2.34%; activity at 100 µM [3]: 28.7%; activity at 100 µM [4]: 184%; viability at 100 µM [5]: 17%; minimal effective concentration (read-out: endo.cyto.24hr POD): 6.71 µM; minimal effective concentration (read-out: endo.mito.24hr POD): 6.71 µM; minimal effective concentration [6]: 44.6 µM; minimal effective concentration (read-out: endo.nma.24hr POD): 13.7 µM; minimal effective concentration (read-out: endo.tc.24hrs POD): 5.78 µM
2 | Oc1ccccc1-c1ccc(Cl)cc1 [2'-OH PCB3] | 99.2 | 99.4 | 117 | 98.3 | 99.2 | 96.5 | 97 | 101 | 98.8 | 96.5 | 100 | 100 | 108 | 96.4 | 100 | 103 | 103 | 124 | 97 | 103 | viability at 100 µM [1]: 57.8%; activity at 100 µM [2]: 61.3%; activity at 100 µM [3]: 87.3%; activity at 100 µM [4]: 89.5%; viability at 100 µM [5]: 87%; minimal effective concentration (read-out: endo.cyto.24hr POD): 44.3 µM; minimal effective concentration (read-out: endo.mito.24hr POD): 44.3 µM; minimal effective concentration [6]: 100 µM; minimal effective concentration (read-out: endo.nma.24hr POD): 1.82 µM; minimal effective concentration (read-out: endo.tc.24hrs POD): 68.2 µM
3 | O=S(=O)(O)Oc1cc(Cl)ccc1-c1ccccc1 [2-yl PCB 3 sulfate] | 93 | 93.3 | 114 | 103 | 93 | 97.1 | 97 | 101 | 100 | 97.1 | 97.8 | 98.5 | 104 | 99.6 | 97.8 | 97.1 | 97.8 | 118 | 99.1 | 97.2 | viability at 100 µM [1]: 102%; activity at 100 µM [2]: 102%; activity at 100 µM [3]: 99.3%; activity at 100 µM [4]: 96.5%; viability at 100 µM [5]: 102%; minimal effective concentration (read-out: endo.cyto.24hr POD): 100 µM; minimal effective concentration (read-out: endo.mito.24hr POD): 100 µM; minimal effective concentration [6]: 100 µM; minimal effective concentration (read-out: endo.nma.24hr POD): 100 µM; minimal effective concentration (read-out: endo.tc.24hrs POD): 100 µM
